Tests used:
ECHCG (Barnyardgrass) = assay: Postemergence herbicidal evaluation; format: in vivo, Echinochloa crus-galli
Method: (§1) In the tests, seedling plants are grown in jiffy flats for about two weeks. The test compounds are dispersed in 50/50 acetone/water mixtures containing 0.5% TWEEN®20, a polyoxyethylene sorbitan monolaurate surfactant of Atlas Chemical Industries, in sufficient quantities to provide the equivalent of about 0.0156 kg to 0.500 kg per hectare of active compound when applied to the plants through a spray nozzle operating at 40 psi for a predetermined time. After spraying, the plants are placed on greenhouse benches and are cared for in accordance with conventional greenhouse procedures. From four to five weeks after treatment, the seedling plants are examined and rated according to the rating system set forth below. Where more than one test is involved for a given compound, the data are averaged.
(§2) Plant species employed in these evaluations are reported by header abbreviation, common name and scientific name.
(§3) Results of herbicide evaluation are expressed on a rating scale (0-9). The scale is based upon a visual observation of plant stand, vigor, malformation, size, chlorosis and overall plant appearance as compared with a control.

GALAP (Galium) = assay: Postemergence herbicidal evaluation; format: in vivo, Galium aparine
Method: as §1, §2, §3

[1] = test system: TRZAWR (Wheat, Winter, cv Riband); assay: Postemergence herbicidal evaluation; format: in vivo, Triticum aestivum
Outline: (§4)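 First, seedlings were raised for around two weeks. Next, test material in 50/50 acetone/water containing 0.5% TWEEN 20 was sprayed through a nozzle at 40 psi, equivalent to about 0.0156–0.500 kg/ha. Finally, after 4–5 weeks in the greenhouse, plants were rated 0–9.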

ZEAMX (Corn, Field) = assay: Postemergence herbicidal evaluation; format: in vivo, Zea mays
Outline: as §4

CYPIR (Rice Flatsedge) [2] = assay: Preemergence weed control under flooded paddy conditions; format: in vivo, Cyperus iria; settings: rated 3-4 weeks after treatment
Method: as §3
(§5) Preemergence herbicidal activity under flooded paddy conditions is determined as follows: plant seeds or propagating organs are planted in the top 0.5 cm of silt loam soil in 32 oz. plastic containers with a diameter of 10.5 cm and no drainage holes. Water is added to these containers and maintained at 1.5 to 3 cm above the soil surface for the duration of the experiment. The test compounds are applied as aqueous/acetone mixtures 50/50 v/v pipetted directly into the flood water to give the equivalent of about 0.0313 to 0.500 kg/ha of active ingredient. The treated containers are placed on greenhouse benches and cared for in accordance with conventional greenhouse procedures. Three to four weeks after treatment, the test is terminated and each container is examined and herbicidal effect rated according to the rating system provided in Example 37. The compounds evaluated are reported by compound number given in Example 37.
(§6) Plant species employed in this example are reported by header abbreviation, common name and scientific name.

[3] = test system: ECHORC (Watergrass (Calif.)); assay: as above; format: in vivo, Echinochloa oryzoides; settings: rated 3-4 weeks after treatment
Method: as §3, §5, §6

SETVI (Foxtail, Green) = assay: Postemergence herbicidal evaluation; format: in vivo, Setaria viridis
Method: as §1, §2, §3

MOOVA (Monochoria) [4] = assay: Postemergence weed control under flooded paddy conditions; format: in vivo, Monochoria vaginalis; settings: postemergence weeds, 3-4 weeks after treatment
Source text: as §3
(§7) Plastic containers containing weeds which are 3 to 5 cm tall and rice seedlings at the 1.5 to 2.5 leaf stage are flooded with water. The water is maintained at 1.5 to 3 cm above the soil surface for the duration of the experiment. Test compounds are applied as aqueous/ acetone mixtures 50/50 v/v directly into the flood water to provide the equivalent of about 0.0313 to 0.500 kg/ha of active ingredient. The treated containers are placed on greenhouse benches and cared for in accordance with conventional greenhouse procedures. Three to four weeks after treatment, the test is terminated and each container is examined and herbicidal effect rated according to the rating system provided in Example 37. The compounds evaluated are reported by compound number given in Example 37.

[5] = test system: IPOHE (Morningglory, Ivyleaf); assay: Postemergence herbicidal evaluation; format: in vivo, Ipomoea hederacea
Outline: as §4

AMBEL (Ragweed, Common) = assay: Postemergence herbicidal evaluation; format: in vivo, Ambrosia artemisifolia
Outline: as §4

CASOB (Sicklepod) = assay: Postemergence herbicidal evaluation; format: in vivo, Cassia obtusifolia
Method: as §1, §2, §3

[6] = test system: SAGPY (Arrowhead (Pygmaea)); assay: Preemergence weed control under flooded paddy conditions; format: in vivo, Sagittaria pygmaea; settings: rated 3-4 weeks after treatment
Method: as §3, §5, §6

CYPSE (Flatsedge) [7] = assay: as above; format: in vivo, Cyperus serotinus; settings: rated 3-4 weeks after treatment
Outline: (§8)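 First, seeds or propagules go into the top 0.5 cm of silt loam; next, water is held 1.5 to 3 cm over the soil; then compound (50/50 acetone/water) is pipetted into it at about 0.0313 to 0.500 kg/ha; finally plants are rated visually 0-9 after three to four weeks.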

ORYSAT (Rice, Tebonnet) = assay: Postemergence herbicidal evaluation; format: in vivo, Oryza sativa, (L.) Tebonnet
Method: as §1, §2, §3

[8] = test system: ECHORC (Watergrass (Calif.)); assay: Postemergence weed control under flooded paddy conditions; format: in vivo, Echinochloa oryzoides; settings: postemergence weeds, 3-4 weeks after treatment
Source text: as §3, §7

CYPSE (Flatsedge) [9] = assay: as above; format: in vivo, Cyperus serotinus; settings: postemergence weeds, 3-4 weeks after treatment
Source text: as §3, §7

[10] = test system: SAGPY (Arrowhead (Pygmaea)); assay: as above; format: in vivo, Sagittaria pygmaea; settings: postemergence weeds, 3-4 weeks after treatment
Source text: as §3, §7

CYPIR (Rice Flatsedge) [11] = assay: as above; format: in vivo, Cyperus iria; settings: postemergence weeds, 3-4 weeks after treatment
Source text: as §3, §7

MOOVA (Monochoria) [12] = assay: Preemergence weed control under flooded paddy conditions; format: in vivo, Monochoria vaginalis; settings: rated 3-4 weeks after treatment
Outline: as §8

[13] = test system: GLXMAW (Soybean, Williams); assay: Postemergence herbicidal evaluation; format: in vivo, Glycine max, (L.) Merr. cv Williams
Outline: as §4

[14] = test system: CHEAL (Lambsquarters, Common); assay: Postemergence herbicidal evaluation; format: in vivo, Chenopodium album
Outline: as §4

ABUTH (Velvetleaf) = assay: Postemergence herbicidal evaluation; format: in vivo, Abutilon theophrasti
Outline: as §4

CCOC(=O)CN1C(=O)C(CC(=O)NC)SC1=Nc1cc(-n2c(=O)cc(C(F)(F)F)n(C)c2=O)c(F)cc1Cl (stereo not shown) [Compound 57, Ethyl 2-{{2-chloro-5-[3,6-dihydro-3-methyl-2,6-dioxo-4-(trifluoromethyl)-1(2H)-pyrimidinyl]-4-fluorophenyl}imino}-5-[(methylcarbamoyl)methyl]-4-oxo-3-thiazolidineacetate]
Postemergence herbicidal rating ECHCG (ECHCG (Barnyardgrass); Rate 0.0158 kg/ha): 1.0
Postemergence herbicidal rating ECHCG (ECHCG (Barnyardgrass); Rate 0.0315 kg/ha): 1.0
Postemergence herbicidal rating ECHCG (ECHCG (Barnyardgrass); Rate 0.0630 kg/ha): 1.0
Postemergence herbicidal rating GALAP (GALAP (Galium); Rate 0.0158 kg/ha): 4.0
Postemergence herbicidal rating GALAP (GALAP (Galium); Rate 0.0315 kg/ha): 6.0
Postemergence herbicidal rating GALAP (GALAP (Galium); Rate 0.0630 kg/ha): 5.0
Postemergence herbicidal rating TRZAWR ([1]; Rate 0.0158 kg/ha): 3.0
Postemergence herbicidal rating TRZAWR ([1]; Rate 0.0315 kg/ha): 4.0
Postemergence herbicidal rating TRZAWR ([1]; Rate 0.0630 kg/ha): 4.0
Postemergence herbicidal rating ZEAMX (ZEAMX (Corn, Field); Rate 0.0158 kg/ha): 4.5
Postemergence herbicidal rating ZEAMX (ZEAMX (Corn, Field); Rate 0.0315 kg/ha): 5.0
Postemergence herbicidal rating ZEAMX (ZEAMX (Corn, Field); Rate 0.0630 kg/ha): 5.0
Herbicidal rating CYPIR (CYPIR (Rice Flatsedge) [2]; 0.0313 kg/ha): 0.0
Herbicidal rating CYPIR (CYPIR (Rice Flatsedge) [2]; 0.0625 kg/ha): 9.0
Herbicidal rating CYPIR (CYPIR (Rice Flatsedge) [2]; 0.1250 kg/ha): 9.0
Herbicidal rating CYPIR (CYPIR (Rice Flatsedge) [2]; 0.2500 kg/ha): 9.0
Herbicidal rating ECHORC ([3]; 0.0313 kg/ha): 0.0
Herbicidal rating ECHORC ([3]; 0.0625 kg/ha): 2.0
Herbicidal rating ECHORC ([3]; 0.1250 kg/ha): 2.0
Herbicidal rating ECHORC ([3]; 0.2500 kg/ha): 5.0
Postemergence herbicidal rating SETVI (SETVI (Foxtail, Green); Rate 0.0158 kg/ha): 2.0
Postemergence herbicidal rating SETVI (SETVI (Foxtail, Green); Rate 0.0315 kg/ha): 4.0
Postemergence herbicidal rating SETVI (SETVI (Foxtail, Green); Rate 0.0630 kg/ha): 5.0
Herbicidal rating MOOVA (MOOVA (Monochoria) [4]; rate 0.0313 kg/ha): 9.0
Herbicidal rating MOOVA (MOOVA (Monochoria) [4]; rate 0.0625 kg/ha): 9.0
Herbicidal rating MOOVA (MOOVA (Monochoria) [4]; rate 0.1250 kg/ha): 9.0
Herbicidal rating MOOVA (MOOVA (Monochoria) [4]; rate 0.2500 kg/ha): 9.0
Postemergence herbicidal rating IPOHE ([5]; Rate 0.0158 kg/ha): 9.0
Postemergence herbicidal rating IPOHE ([5]; Rate 0.0315 kg/ha): 9.0
Postemergence herbicidal rating IPOHE ([5]; Rate 0.0630 kg/ha): 9.0
Postemergence herbicidal rating AMBEL (AMBEL (Ragweed, Common); Rate 0.0158 kg/ha): 9.0
Postemergence herbicidal rating AMBEL (AMBEL (Ragweed, Common); Rate 0.0315 kg/ha): 9.0
Postemergence herbicidal rating AMBEL (AMBEL (Ragweed, Common); Rate 0.0630 kg/ha): 9.0
Postemergence herbicidal rating CASOB (CASOB (Sicklepod); Rate 0.0158 kg/ha): 2.0
Postemergence herbicidal rating CASOB (CASOB (Sicklepod); Rate 0.0315 kg/ha): 2.0
Postemergence herbicidal rating CASOB (CASOB (Sicklepod); Rate 0.0630 kg/ha): 6.0
Herbicidal rating SAGPY ([6]; 0.0313 kg/ha): 0.0
Herbicidal rating SAGPY ([6]; 0.0625 kg/ha): 0.0
Herbicidal rating SAGPY ([6]; 0.1250 kg/ha): 0.0
Herbicidal rating SAGPY ([6]; 0.2500 kg/ha): 6.0
Herbicidal rating CYPSE (CYPSE (Flatsedge) [7]; 0.0313 kg/ha): 0.0
Herbicidal rating CYPSE (CYPSE (Flatsedge) [7]; 0.0625 kg/ha): 0.0
Herbicidal rating CYPSE (CYPSE (Flatsedge) [7]; 0.1250 kg/ha): 0.0
Herbicidal rating CYPSE (CYPSE (Flatsedge) [7]; 0.2500 kg/ha): 3.0
Postemergence herbicidal rating ORYSAT (ORYSAT (Rice, Tebonnet); Rate 0.0158 kg/ha): 1.5
Postemergence herbicidal rating ORYSAT (ORYSAT (Rice, Tebonnet); Rate 0.0315 kg/ha): 2.5
Postemergence herbicidal rating ORYSAT (ORYSAT (Rice, Tebonnet); Rate 0.0630 kg/ha): 3.0
Herbicidal rating ECHORC ([8]; rate 0.0313 kg/ha): 0.0
Herbicidal rating ECHORC ([8]; rate 0.0625 kg/ha): 2.0
Herbicidal rating ECHORC ([8]; rate 0.1250 kg/ha): 2.0
Herbicidal rating ECHORC ([8]; rate 0.2500 kg/ha): 5.0
Herbicidal rating CYPSE (CYPSE (Flatsedge) [9]; rate 0.0313 kg/ha): 0.0
Herbicidal rating CYPSE (CYPSE (Flatsedge) [9]; rate 0.0625 kg/ha): 0.0
Herbicidal rating CYPSE (CYPSE (Flatsedge) [9]; rate 0.1250 kg/ha): 0.0
Herbicidal rating CYPSE (CYPSE (Flatsedge) [9]; rate 0.2500 kg/ha): 3.0
Herbicidal rating SAGPY ([10]; rate 0.0313 kg/ha): 0.0
Herbicidal rating SAGPY ([10]; rate 0.0625 kg/ha): 0.0
Herbicidal rating SAGPY ([10]; rate 0.1250 kg/ha): 0.0
Herbicidal rating SAGPY ([10]; rate 0.2500 kg/ha): 6.0
Herbicidal rating CYPIR (CYPIR (Rice Flatsedge) [11]; rate 0.0313 kg/ha): 0.0
Herbicidal rating CYPIR (CYPIR (Rice Flatsedge) [11]; rate 0.0625 kg/ha): 9.0
Herbicidal rating CYPIR (CYPIR (Rice Flatsedge) [11]; rate 0.1250 kg/ha): 9.0
Herbicidal rating CYPIR (CYPIR (Rice Flatsedge) [11]; rate 0.2500 kg/ha): 9.0
Herbicidal rating MOOVA (MOOVA (Monochoria) [12]; 0.0313 kg/ha): 9.0
Herbicidal rating MOOVA (MOOVA (Monochoria) [12]; 0.0625 kg/ha): 9.0
Herbicidal rating MOOVA (MOOVA (Monochoria) [12]; 0.1250 kg/ha): 9.0
Herbicidal rating MOOVA (MOOVA (Monochoria) [12]; 0.2500 kg/ha): 9.0
Postemergence herbicidal rating GLXMAW ([13]; Rate 0.0158 kg/ha): 6.5
Postemergence herbicidal rating GLXMAW ([13]; Rate 0.0315 kg/ha): 6.5
Postemergence herbicidal rating GLXMAW ([13]; Rate 0.0630 kg/ha): 9.0
Postemergence herbicidal rating CHEAL ([14]; Rate 0.0158 kg/ha): 9.0
Postemergence herbicidal rating CHEAL ([14]; Rate 0.0315 kg/ha): 9.0
Postemergence herbicidal rating CHEAL ([14]; Rate 0.0630 kg/ha): 9.0
Postemergence herbicidal rating ABUTH (ABUTH (Velvetleaf); Rate 0.0158 kg/ha): 9.0
Postemergence herbicidal rating ABUTH (ABUTH (Velvetleaf); Rate 0.0315 kg/ha): 9.0
Postemergence herbicidal rating ABUTH (ABUTH (Velvetleaf); Rate 0.0630 kg/ha): 9.0

— US20020137929A1, “1 - (3-heterocyclylphenyl) isothiourea, -isourea, -guanidine and -amidine herbicidal agents” (Intellectual Property Department, BASF Aktiengesellschaft, priority 1998, published 2002)
